Measured values as given in patent US20020115642A1, “Beta-lactam antibiotics” (priority 2000, published 2002).
In brackets after ≈: the same amount, converted by molar mass. Like-named read-outs stand apart in the source and are kept apart here.

Tests used:
[1] = test system: UDP-glucuronosyltransferase; assay: Glucuronidation assay; type: in vitro ADME, human; conditions: 100 μM, 100 μg human liver microsome, 37° C., 1 hour, TLC
Description: Assays were conducted as outlined in Example 15, using 100 μM Compound (9), triclosan or cephalothin incubated with 100 μg human liver microsome at 37° C. for 1 hour. The reactants were analyzed on TLC plate, and glucuronidated compounds were visualized by MolecularDynamics Storm 820.
Glucuronidation assay was performed based on modified procedure from Bansal and Gessner (1980) Anal. Biochem. 109:321-329. Reactions were performed in 50 mM Tris buffer, pH 7.6, containing 10 mM MgCl2, ImM UDPGA, 0.04 μCi of ^14C-UDPGA, 0.1 mM substrate, and 100 μg human liver microsome. The final volume was 100 μL. Reactions were incubated at 37° C. for one hour and the reactants extracted with 200 μL of 100% ethanol. The protein was removed by centrifugation at 12,000×g for 5 minutes in an Eppendorf centrifuige. The supernatant was dried and resuspended in 30 μL of 100% methanol and spotted on a Whatman glass-backed linear k TLC plate. Chromatography was performed in a mixture of 1-butanol/acetone/acetic acid/water (35:35:10:20). The TLC plate was then dried and exposed to phosphor imager overnight, then monitored by imaging (MolecularDynamics Storm 820).

[2] = test system: E coli R(Tem1); assay: Inhibition of bacterial growth (IC50, OD600); type: cell-based; conditions: for IC50 ratio N/R: N versus R (Tem1)
Description: Compounds of the invention were tested for their ability to inhibit the growth of β-lactam sensitive and resistant bacteria by contacting samples of such cells with various dilutions of the compositions, incubating the cells at 37° C. in the presence of these compositions and then measuring the number of viable cells present in each sample.
Two compounds of the invention were tested, Compound (9) and Compound (1l). Incubation of bacterial cells was performed for two time periods, 10 hours and 20 hours. Four E. coli strains were used for the test. These strains were all derived from the strain NovaBlue (NovaGen Inc., Madison, Wis.). E. coli N is a normal, β-lactam sensitive strain. E coli R(Tem1) is a β-lactam resistant strain with a β-lactamase gene on a plasmid. E. coli C(Tem4O-15) is a β-lactam resistant strain with a β-lactam inhibitor resistant β-lactamase gene, and E. coli C(Tem3 1-27) is β-lactam resistant strain with an alternative β-lactam inhibitor resistant β-lactamase gene.
The various E. coli strains were each treated with dilutions of the compounds of the invention. […] The number of viable cells at each time point was determined by measuring the OD600 of each cell sample.
After measuring the number of viable cells present, the IC50 for each sample was determined. […] In addition, both compounds were effective at inhibiting the growth of both antibiotic sensitive and resistant bacterial cells.

[3] = test system: O=C(Cc1cccs1)N[C@@H]1C(=O)N2C(C(=O)O)=C(/C=C/c3ccc([N+](=O)[O-])cc3[N+](=O)[O-])CS[C@H]12; assay: purified protein, by the assay type; conditions: other: progress curve analysis at 16 μM Compound (9) and […] TEM-1 β-lactamase, 37° C.
[4] = test system: S. epidermidis; assay: Susceptibility testing (MIC, modified NCCLS method); type: cell-based, Staphylococcus epidermidis; conditions: for MIC: Staphylococcus epidermidis
Description: (§1) The NCCLS (National Committee for Clinical Laboratory Standards) method to determine MIC's of antimicrobial compounds was modified for high-throughput screening. All stocks of tested compounds were prepared in either water or in dimethylsulfoxide (DMSO), depending on the solubility. […] Briefly 20 2-fold serial dilutions of testing compounds from the highest concentration were made in a 384-well microtiter plate. Each well was inoculated with testing bacteria in broth to a final concentration of approximately 1-1.5×10^6 cells/ml. Bacterial growth was determined by the increase of optical density at 600 nm using a microplate reader (Tecan SpectraFluor Plus).

[5] = test system: Vancomycin-resistant E. faecalis or E. faecium; assay: as above; type: cell-based, Enterococcus faecalis, Enterococcus faecium
Description: as §1

[6] = test system: E. faecium; assay: as above; type: cell-based, Enterococcus faecium; conditions: for MIC: Enterococcus faecium, read-out: GM* MIC (geometric mean)
Description: as §1

[7] = test system: Staphylococcus aureus; assay: as above; type: cell-based; conditions: Staphylococcus aureus
Description: as §1

[8] = test system: E. faecalis; assay: as above; type: cell-based, Enterococcus faecalis; conditions: for MIC: Enterococcus faecalis, read-out: GM* MIC (geometric mean)
Description: as §1

[9] = test system: E. cloacae; assay: as above; type: cell-based, Enterobacter cloacae; conditions: E. cloacae (1)
Description: as §1

[10] = test system: K. pneumoniae; assay: as above; type: cell-based, Klebsiella pneumoniae; conditions: Klebsiella pneumoniae; K. pneumoniae (5); read-out: GM* MIC (geometric mean)
Description: as §1

[11] = test system: E. coli N; assay: as above; type: cell-based, Escherichia coli; conditions: Escherichia coli; E. coli, BLA neg., drug alone; read-out: MIC
Description: as §1

[12] = test system: E. coli/TEM-1; assay: as above; type: cell-based, Escherichia coli; conditions: Escherichia coli
Description: as §1

[13] = test system: S. pneumoniae; assay: as above; type: cell-based, Streptococcus pneumoniae; conditions: S. pneumoniae (3)
Description: as §1

[14] = test system: E. aerogenes; assay: as above; type: cell-based, Enterobacter aerogenes; conditions: E. aerogenes (5)
Description: as §1

Molecule: Oc1cc(Cl)ccc1Oc1ccc(Cl)cc1Cl [Triclosan, triclosan, reference compound]
- glucuronidation by human liver microsome [1]: glucuronidated
- IC50 ratio N/R ([2]; 10 hours): N/R = 1555x
- IC50 ratio N/R ([2]; 20 hours): N/R = 2.5x
- IC50 ([2]; Escherichia coli, 10 h, read-out: IC50 10 hours, Cell R (Tem1), 10 hours): 0.166 nM
- IC50 ([2]; read-out: IC50 10 hours, Cell R (Tem1), 10 hours): 0.24 nM

Molecule: TEM-1 β-lactamase (Escherichia coli)
- Km [3]: 15 µM
- kcat [3]: 3.3 s⁻¹
- kcat/Km [3]: 220000 M⁻¹ s⁻¹

Molecule: CN[C@H](CC(C)C)C(=O)N[C@H]1C(=O)N[C@@H](CC(N)=O)C(=O)N[C@H]2C(=O)N[C@H]3C(=O)N[C@H](C(=O)N[C@H](C(=O)O)c4cc(O)cc(O)c4-c4cc3ccc4O)[C@H](O)c3ccc(c(Cl)c3)Oc3cc2cc(c3O[C@@H]2O[C@H](CO)[C@@H](O)[C@H](O)[C@H]2O[C@H]2C[C@](C)(N)[C@H](O)[C@H](C)O2)Oc2ccc(cc2Cl)[C@H]1O [Vancomycin, vancomycin, reference compound]
- MIC range ([4]; S. epidermidis (5)): 1 to 2 µg/mL
- MIC ([4]; read-out: GM* MIC (geometric mean)): 1.74 µg/mL (≈ 1.2 µM)
- MIC ([4]; read-out: MICs of heterogeneous vancomycin resistant strains): 2 µg/mL (≈ 1.38 µM)
- MIC ([5]; Enterococcus, VRE, read-out: GM* MIC (geometric mean)): > 47.4 µg/mL
- GM* MIC (geometric mean) ([5]; VRE (5)): >47.4 µg/mL
- MIC [6]: > 3.49 µg/mL
- MIC ([7]; ATCC11632, ATCC 11632, methicillin-sensitive, β-lactamase Neg./Pos.): 0.25 µg/mL (≈ 0.173 µM)
- MIC ([7]; ATCC13301, ATCC 13301, methicillin-sensitive, β-lactamase Positive): 0.25 µg/mL (≈ 0.173 µM)
- MIC ([7]; ATCC14154, ATCC 14154, methicillin-sensitive, β-lactamase Positive): 0.5 µg/mL (≈ 0.345 µM)
- MIC ([7]; ATCC33591, ATCC 33591, methicillin-resistant, β-lactamase Positive): 0.25 µg/mL (≈ 0.173 µM)
- MIC ([7]; ATCC33592, ATCC 33592, methicillin-sensitive, β-lactamase Positive): 0.5 µg/mL (≈ 0.345 µM)
- MIC ([7]; ATCC33593, ATCC 33593, methicillin-resistant, β-lactamase Positive): 0.5 µg/mL (≈ 0.345 µM)
- MIC ([7]; ATCC33594, ATCC 33594, methicillin-sensitive, β-lactamase Positive): 0.5 µg/mL (≈ 0.345 µM)
- MIC ([7]; ATCC43300, ATCC 43300, methicillin-sensitive, β-lactamase Neg./Pos.): 0.5 µg/mL (≈ 0.345 µM)
- MIC ([7]; ATCC700260, ATCC 700260, methicillin-sensitive, β-lactamase Positive): 1 µg/mL (≈ 0.69 µM)
- MIC ([7]; ATCC700698, ATCC 700698, methicillin-resistant, β-lactamase Negative): 2 µg/mL (≈ 1.38 µM)
- MIC ([7]; ATCC700699, ATCC 700699, methicillin-resistant, β-lactamase Negative): 4 µg/mL (≈ 2.76 µM)
- MIC ([7]; ATCC700787, ATCC 700787, methicillin-resistant, β-lactamase Positive): 8 µg/mL (≈ 5.52 µM)
- MIC ([7]; ATCC700788, ATCC 700788, methicillin-resistant, β-lactamase Positive): 2 µg/mL (≈ 1.38 µM)
- MIC ([7]; ATCC700789, ATCC 700789, methicillin-resistant, β-lactamase Positive): 2 µg/mL (≈ 1.38 µM)
- MIC ([7]; MRSA, read-out: Geometric mean of MIC, MRSA tested (7)): 1.64 µg/mL (≈ 1.13 µM)
- MIC ([7]; MSSA, read-out: Geometric mean of MIC, MSSA tested (7)): 0.36 µg/mL (≈ 0.248 µM)
- MIC ([7]; read-out: Geometric mean of MIC, S. aureus (14)): 0.86 µg/mL (≈ 0.593 µM)
- MIC ([7]; read-out: Geometric mean of MIC, S. aureus β-lactamase negative (2)): 2.83 µg/mL (≈ 1.95 µM)
- MIC ([7]; read-out: Geometric mean of MIC, S. aureus β-lactamase positive (12)): 0.94 µg/mL (≈ 0.649 µM)
- MIC [8]: > 6.41 µg/mL

Molecule: CC(=O)OCC1=C(C(=O)O)N2C(=O)[C@@H](NC(=O)Cc3cccs3)[C@H]2SC1 [Cephalothin, cephalothin, reference compound]
- MIC range ([4]; S. epidermidis (5)): 0.2 to 25 µg/mL
- MIC ([4]; S. epidermidis (5), read-out: GM* MIC (geometric mean)): 1.81 µg/mL (≈ 4.57 µM)
- MIC range [9]: >100 µg/mL
- MIC ([9]; Enterobacter cloacae, read-out: GM* MIC (geometric mean)): > 100 µg/mL
- MIC range ([6]; E. faecium (6)): >100 µg/mL
- MIC ([6]; E. faecium (6)): > 100 µg/mL
- MIC ([7]; ATCC11632, ATCC 11632, methicillin-sensitive, β-lactamase Neg./Pos., read-out: MIC): 0.2 µg/mL (≈ 0.504 µM)
- MIC ([7]; ATCC13301, ATCC 13301, methicillin-sensitive, β-lactamase Positive, read-out: MIC): 6.25 µg/mL (≈ 15.8 µM)
- MIC ([7]; ATCC14154, ATCC 14154, methicillin-sensitive, β-lactamase Positive, read-out: MIC): 0.39 µg/mL (≈ 0.984 µM)
- MIC ([7]; ATCC33591, ATCC 33591, methicillin-resistant, β-lactamase Positive, read-out: MIC): 0.56 µg/mL (≈ 1.41 µM)
- MIC ([7]; ATCC33592, ATCC 33592, methicillin-sensitive, β-lactamase Positive, read-out: MIC): 1.56 µg/mL (≈ 3.93 µM)
- MIC ([7]; ATCC33593, ATCC 33593, methicillin-resistant, β-lactamase Positive, read-out: MIC): 0.78 µg/mL (≈ 1.97 µM)
- MIC ([7]; ATCC33594, ATCC 33594, methicillin-sensitive, β-lactamase Positive, read-out: MIC): 0.2 µg/mL (≈ 0.504 µM)
- MIC ([7]; ATCC43300, ATCC 43300, methicillin-sensitive, β-lactamase Neg./Pos., read-out: MIC): 0.39 µg/mL (≈ 0.984 µM)
- MIC ([7]; ATCC700260, ATCC 700260, methicillin-sensitive, β-lactamase Positive, read-out: MIC): 0.39 µg/mL (≈ 0.984 µM)
- MIC ([7]; ATCC700698, ATCC 700698, methicillin-resistant, β-lactamase Negative, read-out: MIC): 100 µg/mL (≈ 252 µM)
- MIC ([7]; ATCC700699, ATCC 700699, methicillin-resistant, β-lactamase Negative, read-out: MIC): 100 µg/mL (≈ 252 µM)
- MIC ([7]; ATCC700787, ATCC 700787, methicillin-resistant, β-lactamase Positive, read-out: MIC): 50 µg/mL (≈ 126 µM)
- MIC ([7]; ATCC700788, ATCC 700788, methicillin-resistant, β-lactamase Positive, read-out: MIC): 3.13 µg/mL (≈ 7.9 µM)
- MIC ([7]; ATCC700789, ATCC 700789, methicillin-resistant, β-lactamase Positive, read-out: MIC): 6.25 µg/mL (≈ 15.8 µM)
- MIC ([7]; MRSA, MRSA tested (7), read-out: Geometric mean of MIC): 10.2 µg/mL (≈ 25.9 µM)
- MIC ([7]; MSSA, MSSA tested (7), read-out: Geometric mean of MIC): 0.58 µg/mL (≈ 1.46 µM)
- MIC ([7]; S. aureus (14), read-out: Geometric mean of MIC): 2.45 µg/mL (≈ 6.18 µM)
- MIC ([7]; S. aureus β-lactamase negative (2), read-out: Geometric mean of MIC): 100 µg/mL (≈ 252 µM)
- MIC ([7]; S. aureus β-lactamase positive (12), read-out: Geometric mean of MIC): 1.32 µg/mL (≈ 3.33 µM)
- MIC [10]: > 66 µg/mL
- MIC [11]: 16 µg/mL (≈ 40.4 µM)
- MIC [12]: > 32 µg/mL
- MIC range [13]: 0.06 to 2 µg/mL
- MIC ([13]; Streptococcus pneumoniae, read-out: GM* MIC (geometric mean)): 0.247 µg/mL (≈ 0.623 µM)
- MIC range ([8]; E. faecalis (7)): 25 to 100 µg/mL
- MIC ([8]; E. faecalis (7)): 61 µg/mL (≈ 154 µM)
- MIC range [14]: >100 µg/mL
- MIC ([14]; Klebsiella aerogenes, read-out: GM* MIC (geometric mean)): > 100 µg/mL
